In assay [1] the target is T1, Programmed cell death protein 1/Programmed cell death 1 ligand 1 (Homo sapiens, UniProt Q9NZQ7). Put plainly: Inhibition of PD-1/PD-L1 interaction (unknown origin) by AlphaLISA assay relative to control. In kind it is protein-complex assay.
Assay [2] concerns the target T1, Programmed cell death protein 1/Programmed cell death 1 ligand 1. The assay is described as follows: Inhibition of PD-1/PD-L1 (unknown origin) interaction incubated for 1 hr by HTRF assay. In kind it is protein-complex assay. On the technique in general: In TR-FRET formats the signal depends on donor and acceptor labels being close together.
For assay [3] the target is unchanged. The assay is described as follows: Inhibition of PD-1 (unknown origin)/PD-L1 (unknown origin) interaction by HTRF binding assay. Format: protein-complex assay.
The target is the same in assay [4]. Put plainly: Inhibition of PD-1/PD-L1 (unknown origin) protein-protein interaction incubated for 15 mins by TR-FRET assay. In kind it is protein-complex assay.
The target is the same in assay [5]. Put plainly: Inhibition of PD-1/PD-L1 interaction (unknown origin) by TR-FRET assay. Format: protein-complex assay.
For assay [6] the target is unchanged. The assay is described as follows: Inhibition of human […] interaction incubated for 15 mins by TR-FRET assay. Format: protein-complex assay.
For assay [7], the target named is Programmed cell death 1 ligand 1 (Homo sapiens) (UniProt Q9NZQ7). The assay is described as follows: Binding affinity to PD-L1 (unknown origin) assessed as Gibbs free energy change.
Sequence of Programmed cell death 1 ligand 1 (Homo sapiens) (Q9NZQ7 whole entry): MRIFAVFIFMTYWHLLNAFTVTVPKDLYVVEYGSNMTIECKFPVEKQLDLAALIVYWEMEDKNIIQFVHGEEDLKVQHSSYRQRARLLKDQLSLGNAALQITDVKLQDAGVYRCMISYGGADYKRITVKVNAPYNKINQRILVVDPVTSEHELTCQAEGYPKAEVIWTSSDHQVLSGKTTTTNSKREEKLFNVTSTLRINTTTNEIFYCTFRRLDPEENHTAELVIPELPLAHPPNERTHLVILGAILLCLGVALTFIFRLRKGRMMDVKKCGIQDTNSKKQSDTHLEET
For assay [8], the target named is T1, Programmed cell death protein 1/Programmed cell death 1 ligand 1. Put plainly: Inhibition of PD-1/PD-L1 (unknown origin) interaction. Format: protein-complex assay.
The target is the same in assay [9]. Put plainly: Inhibition of human PD-1/PD-L1 interaction incubated for 24 hrs by HTRF assay. In kind it is protein-complex assay.
The target is the same in assay [10]. Put plainly: Inhibition of PD-1/PD-L1 (unknown origin) interaction incubated for 2 hr by TR-FRET assay. Format: protein-complex assay.
A further assay has as its system Jurkat. The assay is described as follows: Induction of T cell activation in human Jurkat T cells overexpressing PD-1 co-cultured with Chinese hamster CHO cells overexpressing PD-L1 assessed as increase in luciferase activity incubated for 6 hrs by Bio-GloTM reagent based immune checkpoint blockade assay. In kind it is functional.

pEC50, pIC50: −log10 of the molar value.

T1 sequence (Q15116 whole entry): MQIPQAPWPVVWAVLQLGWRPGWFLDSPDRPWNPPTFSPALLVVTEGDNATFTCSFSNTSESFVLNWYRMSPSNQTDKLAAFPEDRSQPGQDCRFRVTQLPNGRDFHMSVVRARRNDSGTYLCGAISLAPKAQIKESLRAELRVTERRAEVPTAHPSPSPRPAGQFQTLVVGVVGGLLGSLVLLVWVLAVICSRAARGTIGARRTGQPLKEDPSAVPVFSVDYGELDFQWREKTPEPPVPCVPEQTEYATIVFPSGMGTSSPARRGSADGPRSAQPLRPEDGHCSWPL
T1 sequence (Q9NZQ7 whole entry): as the sequence (Q9NZQ7 whole entry) above

In the case of `Cc1c(COc2cc(OCc3cncc(C#N)c3)c(CNC(C)(C)C(=O)O)cc2Cl)cccc1-c1ccccc1`, in assay [1], the negative logarithm of the IC50 (pIC50) is 8.57.

`Cc1c(COc2cc(OCc3cncc(C#N)c3)c(CN(CCCN(C)C)CCS(=O)(=O)O)cc2Cl)cccc1-c1ccc2c(c1)OCCO2`: the negative-log IC50 (pIC50) in [1] is 8.57.

Compound `Cc1c(COc2cc(OCc3ccc(OC(F)(F)F)nc3)c(N3CCCCC3C(=O)O)cc2Cl)cccc1-c1ccccc1` (centres undefined) showed a pIC50 in [2] of 7.25.

In [3], `O=C(O)[C@H](CO)NCc1cc(Cl)c(OCc2cccc(-c3ccccc3)c2Br)cc1OCc1cccnc1` showed a pIC50 of 8.96.

Compound `Cc1cc(/C=C/c2ccc3cc(N(C)C)ccc3[n+]2C)c(C)n1-c1ccccc1` had a negative logarithm of the IC50 (pIC50) in [4] of 7.53.

`Cc1c(COc2cc(OCc3cccc(C#N)c3)c(CNC(CO)(CO)CO)cc2Cl)cccc1-c1cccc(-c2cc(C(=O)N3CC[C@@H](O)C3)no2)c1` had a negative-log IC50 (pIC50) in assay [5] of 7.64.

In the case of `CC(C)OC(=O)[C@H](CO)NCc1cc(Cl)c(OCc2cccc(-c3ccccc3)c2Br)cc1OCc1cccnc1`, in assay [3], the negative-log IC50 (pIC50) is 7.34.

Compound `CS(=O)(=O)c1cncc(CCc2nc(OCc3cccc(-c4cccc(-c5ccc6c(c5)C[C@H](N)C6)c4Cl)c3Cl)c(Br)cc2CN2CCCC[C@@H]2C(=O)O)c1` gave a negative-log IC50 (pIC50) in assay [6] of 10.05.

Consider `Cc1c(COc2cc(OCc3cccc(C#N)c3)c(CN3C[C@H](O)C[C@@H]3C(=O)O)cc2Cl)cccc1-c1ccc2c(c1)OCCO2`, for which the deltaG in [7] is -34 kcal/mol.

Regarding `Fc1cccc(-c2nccc(N[C@@H]3CO[C@@H]4[C@H]3OC[C@H]4NCc3ccccn3)n2)c1`, in assay [7], the deltaG is -32 kcal/mol.

In assay [8], `O=C(O)[C@H](CO)NCc1ccc(Nc2nsc3c(-c4ccc5c(c4)OCCO5)cccc23)c(Br)c1` showed a negative-log IC50 (pIC50) of 8.24.

`Cc1c(/C=C/c2ccc(CNC(C)(CO)C(=O)O)cc2C(F)(F)F)cccc1-c1ccc2c(c1)OCCO2` (centres undefined) had a pIC50 in [9] of 7.74.

`Cn1nc(Nc2cccc(-c3ccc4c(c3)OCCO4)c2Cl)c2ccc(CN[C@H](CO)C(=O)O)cc21`: in [10], the pIC50 was 8.02. Moreover, in the assay on Jurkat, the pEC50 was 5.79.

The pIC50 is the negative decadic logarithm of the IC50, by convention in mol/L. Read a low pIC50 as a large IC50. For orientation: pEC50 means the EC50 on a negative log10 scale, so that one unit is a factor of ten.
